Measurements taken from paper PMC5485613, “A novel TRPM8 agonist relieves dry eye discomfort” (BMC Ophthalmology, 2017).
“And” between values parts separate entries of the source, which are not always exact repeats. Equal entries are not always repeated.

Key:
[1] = tested on: patients with dry eye disease; experiment: Single application to eyelids of patients with dry eye disease (Expt 1); type: in vivo, human
Procedure: In the first experiment in which only a single application was tested, 60 subjects were randomly assigned using online software (http://www.graphpad.com/quickcalcs/index.cfm). One group received the vehicle solution (distilled water) (N = 30), and the second group received the TRPM8 agonist C3 dissolved in 2 mg/mL in distilled water (N = 30). Test solutions were kept at room temperature and topically applied to the eyelid skin and margins using an absorbent cotton gauze square (0.4 g rectangle (50 mm × 60 mm), CS-being, Daisan Cotton, Japan). A loading volume of 0.5 mL of solution was used to wet the cotton and the square wiped twice across the closed eyelids (Fig. 5c). The off-loaded volume from the gauze was estimated by weighing the square before and after wiping and found to be 6.5 mg or 6.5 μL. For the C3 solution this is equivalent to 13 μg of C3 for both eyes. This method of delivery targets the edges of the closed eyelids and utilizes the eyelashes as a wick to distribute the solution to the mucocutaneous junctions, conjunctiva, and precorneal film. The lid wiper mechanism of the blink further evenly distributes the solution on to the ocular surface. By using this wiping method, bolus delivery of an eye drop to the corneal surface is avoided.
Subsequently, cooling sensation (every 5 min), TBUT (every 10 min), basal tear secretion (every 20 min), and keratoepitheliopathy (KEP) score (every 30 min) were evaluated for 1 h. In addition, a questionnaire asking the severity of dry eye was used to evaluate the changes in dry eye symptom before and 1 h after application of topical agents. To avoid the effect of topical anesthesia on patient’s sensation, changes in cooling sensation and symptoms of dry eye were evaluated in the right eye, and the remaining examinations including the basal tear secretion measured by Schirmer score with application of topical 0.5% proparacine were performed on the left eye. All examinations were performed by a single masked investigator (K.C.Y) who was not informed of the results of the randomization. All the experiments and the answering the questionnaire were performed in a separate room so that the subjects would not compare the difference of the medications. The room temperature of the study was maintained at 25 °C. Cooling sensation was recorded by subjects using VAS symptom intensity scores on a scale of 0 (no symptom) to 10 (maximum intensity). The severity of dry eye symptoms was graded on a numerical score of 0 to 4 as follows; 0, no symptoms; 1, mild symptoms; 2, moderate symptoms; 3, severe symptoms; and 4, very severe symptoms. TBUT and basal tear secretion (Schirmer score with application of topical 0.5% proparacaine) were measured as previously described. To assess the corneal epithelial damage, the cornea was stained with 1% Fluorescein dye and the severity of KEP was scored by multiplying the area score (0–3) by density score (0–3) of staining.

TRPM8-sensory neurons = experiment: Calcium imaging of primary sensory neurons from Trpm8 EGFP mice; type: cell-based, mouse; conditions: C3 10 μM
Procedure: Calcium imaging was used to test the C3 selectivity on TRPM8-sensory neurons. Trpm8 ^+/EGFPmice were gifted by Dr. Yu-Qing Cao, Pain Center of Washington University in Saint Louis, School of Medicine, Missouri. Trigeminal ganglions and dorsal root ganglions from 4 to 5 weeks old mice were collected after CO2 euthanasia and digested for 30–40 min before plated on cover slips (8 mm), which were coated with poly-D-lysine for 40 min before use. Cover slips were gently washed with culture media to remove myelin after incubating for 35–40 min. Calcium imaging was done after incubation overnight at 37 °C, 5% CO2. Neurons were loaded with Fura-2 AM™ (Molecular Probes) for 30 min at room temperature. After washing and recovery, neurons were imaged at 340 and 380 nm excitation to detect free calcium influx. An increase of 50% of the 340/380 ratio was considered as the response threshold which were measured under blinded conditions for genotypes. Compounds were applied to the bath and calcium response was acquired by an inverted Nikon fluorescence microscope with a CoolSnap HQ2 CCD camera (Photometrics, Tucson, AZ). Data was quantified offline with the Nikon-NIS program.

## CCCCCCCCCP(=O)(C(C)C)C(C)C [C3, 1-diisopropylphosphorylnonane]
[1]; 2 mg/mL single application
  duration of increase in tear secretion: 60 min
  ocular pain or irritation: None of patients reported
[1]; 2 mg/mL single application, 20, 40 and 60 min
  basal tear secretion: significantly increased
[1]; 2 mg/mL single application, 30 min and 40 min, above baseline
  TBUT: significantly elevated
[1]; 2 mg/mL single application, 1 h, compared to baseline
  dry eye symptom score: improved significantly
[1]; 2 mg/mL single application, n = 30
  duration of ocular cooling: 46 min and 46 ± 2 min
[1]; 2 mg/mL single application, versus vehicle
  KEP score: No differences
TRPM8-sensory neurons
  calcium entry in TRPM8 EGFP/+ sensory neurons: activates calcium entry
